This is an account of results in publication PMC9736855, “Discovery of 3-Amino-1H-pyrazole-Based Kinase Inhibitors to Illuminate the Understudied PCTAIRE Family” (International Journal of Molecular Sciences, 2022).

Structures are written as SMILES.

What all share (assay): NanoBRET
What all share (assay type): cell-based
On the technique in general: BRET reads energy transfer from a luciferase to a nearby fluorophore.

In one test the target is T1, CDK1/Cyclin E1 (Homo sapiens, UniProt P06493).
T1 construct: Full-length kinases were obtained as plasmids cloned in frame with a terminal NanoLuc-fusion; CS1810C171 (CCNE1); host or cells: HEK293T
T1 sequence (P06493 whole entry, the tested form may be a part): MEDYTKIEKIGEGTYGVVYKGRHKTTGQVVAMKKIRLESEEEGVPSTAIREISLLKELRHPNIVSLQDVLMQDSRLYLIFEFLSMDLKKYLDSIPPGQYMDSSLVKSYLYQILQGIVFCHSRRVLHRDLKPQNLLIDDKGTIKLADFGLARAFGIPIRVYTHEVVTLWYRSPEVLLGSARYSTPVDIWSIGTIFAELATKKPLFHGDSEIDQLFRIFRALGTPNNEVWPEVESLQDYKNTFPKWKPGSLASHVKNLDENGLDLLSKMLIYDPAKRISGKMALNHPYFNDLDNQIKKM
To be noted: read-out: NanoBRET EC50 ± SEM CDK1/Cyclin E1. Here is the method:
(§1) The assay was performed as described previously. In brief: Full-length kinases were obtained as plasmids cloned in frame with a terminal NanoLuc-fusion (Promega, Madison, WI, USA), as specified in table (Table S6). Plasmids were transfected into HEK293T cells using FuGENE HD (Promega, E2312) and proteins were allowed to express for 20h. Serially diluted inhibitor and NanoBRET Kinase Tracer (Promega) at a concentration determined previously as the KD,app (Table S5) were pipetted into white 384-well plates (Greiner 781207) using an Echo acoustic dispenser (Labcyte, San Jose, CA, USA). The corresponding protein-transfected cells were added and reseeded at a density of 2.5 × 10^5 cells/mL after trypsinization and resuspending in Opti-MEM without phenol red (Life Technologies, Carlsbad, CA, USA). The system was allowed to equilibrate for 2 h at 37 °C/5% CO2 prior to BRET measurements. To measure BRET, NanoBRET NanoGlo Substrate + Extracellular NanoLuc Inhibitor (Promega, N2540) was added as per the manufacturer’s protocol, and filtered luminescence was measured on a PHERAstar plate reader (BMG Labtech, Ortenberg, Germany) equipped with a luminescence filter pair (450 nm BP filter (donor) and 610 nm LP filter (acceptor)). Competitive displacement data were then graphed using GraphPad Prism 9 software using a normalized 3-parameter curve fit with the following equation: Y = 100/(1 + 10^(X–LogEC50)).

A further test has as its target CDK10/Cyclin L2 (Homo sapiens, UniProt Q15131). The settings on record: read-out: NanoBRET EC50 ± SEM CDK10/Cyclin L2. Here is the method: as §1
For another test, the target named is T2, CDK11A/Cyclin K (Homo sapiens, UniProt Q9UQ88).
T2 sequence (Q9UQ88 1-783): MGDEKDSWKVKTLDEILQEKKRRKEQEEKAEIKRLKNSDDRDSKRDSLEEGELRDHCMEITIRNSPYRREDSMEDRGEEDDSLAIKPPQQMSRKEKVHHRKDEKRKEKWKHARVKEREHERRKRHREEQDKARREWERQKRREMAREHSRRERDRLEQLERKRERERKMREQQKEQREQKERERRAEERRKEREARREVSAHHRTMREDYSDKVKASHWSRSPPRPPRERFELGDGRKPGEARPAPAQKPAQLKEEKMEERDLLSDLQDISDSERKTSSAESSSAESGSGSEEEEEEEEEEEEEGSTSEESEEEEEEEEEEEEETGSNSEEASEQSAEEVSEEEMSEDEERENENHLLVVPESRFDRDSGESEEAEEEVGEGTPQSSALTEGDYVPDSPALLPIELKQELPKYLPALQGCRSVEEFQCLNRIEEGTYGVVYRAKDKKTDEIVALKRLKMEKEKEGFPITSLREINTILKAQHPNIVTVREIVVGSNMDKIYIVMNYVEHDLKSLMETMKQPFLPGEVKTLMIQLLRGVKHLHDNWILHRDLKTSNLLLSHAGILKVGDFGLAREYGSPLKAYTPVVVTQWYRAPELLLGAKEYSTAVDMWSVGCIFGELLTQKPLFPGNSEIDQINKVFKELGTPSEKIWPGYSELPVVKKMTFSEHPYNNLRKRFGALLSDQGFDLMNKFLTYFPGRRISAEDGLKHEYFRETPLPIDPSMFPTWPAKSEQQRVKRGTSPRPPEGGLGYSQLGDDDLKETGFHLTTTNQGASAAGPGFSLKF
To be noted: read-out: NanoBRET EC50 ± SEM CDK11A/Cyclin K. Here is the method: as §1

The next test addresses T3, CDK11A/Cyclin L2 (Homo sapiens, UniProt Q9UQ88).
T3 sequence (Q9UQ88 1-783): T2 sequence (Q9UQ88 1-783)
T3 sequence (Q96S94 1-520 partner): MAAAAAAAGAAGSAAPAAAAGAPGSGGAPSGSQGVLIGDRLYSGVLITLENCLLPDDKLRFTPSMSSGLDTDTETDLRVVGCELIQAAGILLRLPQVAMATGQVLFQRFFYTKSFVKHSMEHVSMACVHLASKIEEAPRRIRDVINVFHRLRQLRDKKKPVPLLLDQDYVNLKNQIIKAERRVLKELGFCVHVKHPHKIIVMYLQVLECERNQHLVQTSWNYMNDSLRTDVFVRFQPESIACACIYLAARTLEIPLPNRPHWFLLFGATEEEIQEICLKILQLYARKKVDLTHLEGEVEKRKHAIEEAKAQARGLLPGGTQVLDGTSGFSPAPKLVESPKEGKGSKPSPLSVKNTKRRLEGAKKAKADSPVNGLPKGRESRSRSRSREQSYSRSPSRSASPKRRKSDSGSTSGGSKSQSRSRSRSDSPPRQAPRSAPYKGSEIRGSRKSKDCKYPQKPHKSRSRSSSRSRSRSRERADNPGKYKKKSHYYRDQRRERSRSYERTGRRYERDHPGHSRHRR
To be noted: read-out: NanoBRET EC50 ± SEM CDK11A/Cyclin L2. The protocol: as §1

For a further test, the target named is CDK11B/Cyclin L2 (Homo sapiens, UniProt P21127). To be noted: read-out: NanoBRET EC50 ± SEM CDK11B/Cyclin L2. The protocol: as §1
Sequence of CDK11B/Cyclin L2 (P21127 whole entry, one chain of several): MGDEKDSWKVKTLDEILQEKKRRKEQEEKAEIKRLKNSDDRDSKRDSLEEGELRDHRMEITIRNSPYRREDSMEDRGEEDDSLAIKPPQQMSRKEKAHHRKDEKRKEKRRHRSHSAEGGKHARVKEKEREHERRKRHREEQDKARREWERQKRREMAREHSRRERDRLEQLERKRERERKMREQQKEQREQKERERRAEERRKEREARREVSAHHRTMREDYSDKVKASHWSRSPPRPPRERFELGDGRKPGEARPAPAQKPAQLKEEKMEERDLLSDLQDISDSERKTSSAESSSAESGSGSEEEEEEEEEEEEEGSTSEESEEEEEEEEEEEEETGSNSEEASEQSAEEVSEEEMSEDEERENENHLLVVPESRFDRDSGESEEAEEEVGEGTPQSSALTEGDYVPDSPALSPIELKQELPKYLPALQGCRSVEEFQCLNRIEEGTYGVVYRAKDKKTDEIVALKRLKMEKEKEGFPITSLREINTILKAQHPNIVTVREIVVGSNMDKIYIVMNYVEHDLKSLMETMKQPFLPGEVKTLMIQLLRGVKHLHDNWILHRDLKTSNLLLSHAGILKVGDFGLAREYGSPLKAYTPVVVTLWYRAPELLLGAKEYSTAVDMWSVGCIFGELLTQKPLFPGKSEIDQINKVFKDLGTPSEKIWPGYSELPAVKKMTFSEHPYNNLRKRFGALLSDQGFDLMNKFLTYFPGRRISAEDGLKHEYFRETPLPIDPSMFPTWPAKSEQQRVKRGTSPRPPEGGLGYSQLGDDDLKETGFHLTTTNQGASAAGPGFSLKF
A further test has as its target T4, CDK2/Cyclin D1 (Homo sapiens, UniProt P24941).
T4 construct: Full-length kinases were obtained as plasmids cloned in frame with a terminal NanoLuc-fusion; CS1810C118 (CCND1); host or cells: HEK293T
To be noted: read-out: NanoBRET EC50 ± SEM CDK2/Cyclin D1. The protocol:
as §1

A further test has as its target T5, CDK2/Cyclin E1 (Homo sapiens, UniProt P24941).
T5 construct: Full-length kinases were obtained as plasmids cloned in frame with a terminal NanoLuc-fusion; CS1810C171 (CCNE1); host or cells: HEK293T
The settings on record: read-out: NanoBRET EC50 ± SEM CDK2/Cyclin E1. Here is the method:
as §1

Another test addresses T6, CDK3/Cyclin E1 (Homo sapiens, UniProt Q00526).
T6 construct: Full-length kinases were obtained as plasmids cloned in frame with a terminal NanoLuc-fusion; CS1810C171 (CCNE1); host or cells: HEK293T
The settings on record: read-out: NanoBRET EC50 ± SEM CDK3/Cyclin E1. Here is the method: as §1

Another test deals with T7, CDK6/Cyclin D1 (Homo sapiens, UniProt Q00534).
T7 construct: Full-length kinases were obtained as plasmids cloned in frame with a terminal NanoLuc-fusion; CS1810C118 (CCND1); host or cells: HEK293T
T7 sequence (Q00534 whole entry, the tested form may be a part): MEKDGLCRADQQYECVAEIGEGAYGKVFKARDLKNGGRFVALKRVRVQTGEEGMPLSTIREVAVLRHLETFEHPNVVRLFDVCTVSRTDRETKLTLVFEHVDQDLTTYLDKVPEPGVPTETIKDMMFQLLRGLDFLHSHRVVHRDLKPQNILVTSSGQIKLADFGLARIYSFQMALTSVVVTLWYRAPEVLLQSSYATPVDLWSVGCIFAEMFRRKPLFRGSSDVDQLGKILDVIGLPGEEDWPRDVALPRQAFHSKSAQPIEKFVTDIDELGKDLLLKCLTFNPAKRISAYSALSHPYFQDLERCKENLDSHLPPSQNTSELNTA
T7 sequence (P24385 whole entry partner, the tested form may be a part): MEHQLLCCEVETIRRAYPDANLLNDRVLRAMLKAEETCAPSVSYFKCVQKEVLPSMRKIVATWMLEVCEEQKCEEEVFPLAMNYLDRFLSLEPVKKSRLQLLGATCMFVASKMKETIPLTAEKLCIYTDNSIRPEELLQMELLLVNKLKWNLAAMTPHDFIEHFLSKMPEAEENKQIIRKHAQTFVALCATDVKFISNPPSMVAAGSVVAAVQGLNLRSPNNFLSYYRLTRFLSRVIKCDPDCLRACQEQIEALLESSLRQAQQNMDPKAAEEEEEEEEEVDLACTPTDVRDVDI
The settings on record: read-out: NanoBRET EC50 ± SEM CDK6/Cyclin D1. Here is the method: as §1

The target in another test is T8, CDK9/Cyclin K (Homo sapiens, UniProt P50750).
T8 construct: Full-length kinases were obtained as plasmids cloned in frame with a terminal NanoLuc-fusion; CS1810C93 (CCNK); host or cells: HEK293T
T8 sequence (P50750 whole entry, the tested form may be a part): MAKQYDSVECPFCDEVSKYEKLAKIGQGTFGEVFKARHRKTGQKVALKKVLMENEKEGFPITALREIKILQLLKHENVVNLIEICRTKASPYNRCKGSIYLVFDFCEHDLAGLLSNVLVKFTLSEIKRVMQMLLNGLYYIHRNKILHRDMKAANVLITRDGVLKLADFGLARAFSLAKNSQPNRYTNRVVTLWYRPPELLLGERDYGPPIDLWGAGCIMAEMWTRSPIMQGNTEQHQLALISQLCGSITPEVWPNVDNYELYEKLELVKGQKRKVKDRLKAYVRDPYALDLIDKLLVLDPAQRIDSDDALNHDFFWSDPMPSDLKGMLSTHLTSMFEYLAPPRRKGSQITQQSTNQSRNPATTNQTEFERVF
The settings on record: read-out: NanoBRET EC50 ± SEM CDK9/Cyclin K. The protocol: as §1

T6 sequence (Q00526 whole entry, the tested form may be a part): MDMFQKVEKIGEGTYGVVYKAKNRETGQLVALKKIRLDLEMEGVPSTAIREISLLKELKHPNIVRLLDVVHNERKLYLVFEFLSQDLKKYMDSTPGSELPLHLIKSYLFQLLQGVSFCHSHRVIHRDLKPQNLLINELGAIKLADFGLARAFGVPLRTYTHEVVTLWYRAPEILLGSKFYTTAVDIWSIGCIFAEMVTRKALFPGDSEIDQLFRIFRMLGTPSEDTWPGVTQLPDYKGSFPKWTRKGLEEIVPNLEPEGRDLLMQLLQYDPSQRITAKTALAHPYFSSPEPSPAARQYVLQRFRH
T6 sequence (P24864 whole entry partner, the tested form may be a part): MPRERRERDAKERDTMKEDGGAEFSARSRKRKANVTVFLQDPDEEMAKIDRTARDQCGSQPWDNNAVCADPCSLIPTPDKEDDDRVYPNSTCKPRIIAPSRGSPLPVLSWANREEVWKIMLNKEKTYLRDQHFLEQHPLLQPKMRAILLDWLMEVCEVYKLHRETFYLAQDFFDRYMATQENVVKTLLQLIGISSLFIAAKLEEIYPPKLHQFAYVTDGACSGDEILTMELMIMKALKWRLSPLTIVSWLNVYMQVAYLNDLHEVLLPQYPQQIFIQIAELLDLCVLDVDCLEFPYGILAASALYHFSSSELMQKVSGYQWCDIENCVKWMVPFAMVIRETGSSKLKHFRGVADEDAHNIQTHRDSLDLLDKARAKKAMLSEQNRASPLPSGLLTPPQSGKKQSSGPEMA
Sequence of CDK10/Cyclin L2 (Q15131 whole entry): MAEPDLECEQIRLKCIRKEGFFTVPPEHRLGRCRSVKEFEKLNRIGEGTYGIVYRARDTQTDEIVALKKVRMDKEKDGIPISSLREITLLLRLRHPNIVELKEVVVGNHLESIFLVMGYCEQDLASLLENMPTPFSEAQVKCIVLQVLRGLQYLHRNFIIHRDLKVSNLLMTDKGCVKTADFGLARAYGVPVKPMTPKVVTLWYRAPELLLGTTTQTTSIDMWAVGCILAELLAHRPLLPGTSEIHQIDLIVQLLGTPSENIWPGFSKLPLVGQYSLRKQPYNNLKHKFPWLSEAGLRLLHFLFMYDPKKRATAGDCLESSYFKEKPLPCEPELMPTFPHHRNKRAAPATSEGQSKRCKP

As for `COC(=O)c1cc(Nc2ccnc(NCc3ccc(NC(=O)OC(C)(C)C)cc3)n2)[nH]n1` [21i, methyl 5-((2-((4-((tert-butoxycarbonyl)amino)benzyl)amino)pyrimidin-4-yl)amino)-1H-pyrazole-3-carboxylate], the EC50 on CDK1/Cyclin E1 is 6420 ± 3460 nM; at CDK10/Cyclin L2, 7930 ± 2930 nM; at CDK11A/Cyclin K it was 21100 ± 11000 nM; on CDK11A/Cyclin L2, 20500 ± 11800 nM; at CDK11B/Cyclin L2 it was 16700 ± 7890 nM; on CDK2/Cyclin D1, 33500 ± 1520 nM. The EC50 at CDK2/Cyclin E1 is 20900 ± 5690 nM; at CDK3/Cyclin E1 it was 12400 ± 4610 nM; at CDK6/Cyclin D1, 7450 ± 1740 nM; on CDK9/Cyclin K, 7000 ± 2120 nM.
Consider `CC(C)OC(=O)c1cc(Nc2ccnc(NCc3ccc(NC(=O)OC(C)(C)C)cc3)n2)n[nH]1` [42d, isopropyl 3-((2-((4-((tert-butoxycarbonyl)amino)benzyl)amino)pyrimidin-4-yl)amino)-1H-pyrazole-5-carboxylate], for which the EC50 on CDK1/Cyclin E1 is 200 ± 42.8 nM; at CDK10/Cyclin L2, 333.6 ± 0.2 nM; on CDK11A/Cyclin K, 3100 ± 1350 nM; at CDK11A/Cyclin L2, 2090 ± 599 nM; at CDK11B/Cyclin L2 it was 2990 ± 1330 nM; at CDK2/Cyclin D1, 4860 ± 2390 nM. Moreover, the EC50 was found to be 2600 ± 914 nM on CDK2/Cyclin E1, 1270 ± 522 nM at CDK3/Cyclin E1, 959 ± 391 nM on CDK6/Cyclin D1 and 575 ± 157 nM on CDK9/Cyclin K.
Turning to `CC(C)(C)OC(=O)Nc1ccc(CNc2nccc(Nc3cc(C(=O)OC(C)(C)C)[nH]n3)n2)cc1` [43d, tert-butyl 3-((2-((4-((tert-butoxycarbonyl)amino)benzyl)amino)pyrimidin-4-yl)amino)-1H-pyrazole-5-carboxylate], the EC50 was found to be 582 nM at CDK1/Cyclin E1; 651 nM at CDK10/Cyclin L2; 7980 ± 3740 nM on CDK11A/Cyclin K; 3460 ± 1840 nM at CDK11A/Cyclin L2; 3580 ± 1730 nM at CDK11B/Cyclin L2; 3070 ± 1860 nM at CDK2/Cyclin D1. Further, the EC50 on CDK2/Cyclin E1 came to 1860 ± 582 nM; on CDK3/Cyclin E1, 2750 ± 959 nM; at CDK6/Cyclin D1 it was 1740 ± 206 nM; on CDK9/Cyclin K, 993 nM.
For `N#CCc1ccc(Nc2nccc(Nc3cc(C4CC4)[nH]n3)n2)cc1` [compound 1, reference compound], the EC50 is 5.2 ± 2.5 nM on CDK1/Cyclin E1; 325 ± 36.4 nM at CDK10/Cyclin L2; 999 ± 476 nM at CDK11A/Cyclin K; 760 ± 460 nM at CDK11A/Cyclin L2; 669 ± 406 nM on CDK11B/Cyclin L2; 38.6 ± 17.3 nM on CDK2/Cyclin D1. In addition, the EC50 on CDK2/Cyclin E1 was 26.7 ± 6.3 nM; on CDK3/Cyclin E1 it was 11.8 ± 4.5 nM; at CDK6/Cyclin D1, 10.5 ± 3.8 nM; on CDK9/Cyclin K it was 17.4 ± 5.4 nM.
